From patent US20160272617A1, “SUBSTITUTED PHENYLALANINE DERIVATIVES” (BAYER PHARMA AKTIENGESELLSCHAFT, priority 2013, published 2016) come the findings set out here.

The test system of one assay is human and animal plasma. The experiment in a line: Determination of anticoagulatory activity: activated partial thromboplastin time (aPTT) in plasma. The conditions noted are these: concentration of test substance which brings about a 1.5-fold extension of the aPTT; plasma species not given. The gist of the method:
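Citrated plasma (1:9, 0.11 M citrate; 4000 g, 15 min) from human or animal blood incubated with test compound and cephalin/kaolin PTT reagent for 3 min at 37° C.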

The target in another assay is T1, human factor XIa (Homo sapiens, UniProt P03951).
T1 construct: purchased Kordia
T1 sequence (P03951 388-625 limits assumed): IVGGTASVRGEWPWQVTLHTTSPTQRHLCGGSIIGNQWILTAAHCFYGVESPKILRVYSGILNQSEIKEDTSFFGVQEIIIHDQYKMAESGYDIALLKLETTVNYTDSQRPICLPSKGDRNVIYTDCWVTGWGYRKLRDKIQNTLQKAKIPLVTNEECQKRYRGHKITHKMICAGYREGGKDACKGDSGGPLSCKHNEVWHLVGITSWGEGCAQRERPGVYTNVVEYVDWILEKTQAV
T1 sequence (P03951 19-387 partner limits assumed): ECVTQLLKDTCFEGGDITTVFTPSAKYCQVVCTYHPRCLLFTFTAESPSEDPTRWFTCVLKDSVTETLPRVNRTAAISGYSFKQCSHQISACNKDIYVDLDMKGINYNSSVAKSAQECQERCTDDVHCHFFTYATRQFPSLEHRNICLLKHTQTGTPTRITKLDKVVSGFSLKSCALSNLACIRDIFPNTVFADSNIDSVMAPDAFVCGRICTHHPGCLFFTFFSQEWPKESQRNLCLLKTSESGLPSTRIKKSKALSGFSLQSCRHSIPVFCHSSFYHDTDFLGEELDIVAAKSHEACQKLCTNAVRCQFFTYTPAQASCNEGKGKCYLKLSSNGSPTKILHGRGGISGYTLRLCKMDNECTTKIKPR
The experiment in a line: Measurement of FXIa inhibition (fluorogenic peptide substrate Boc-Glu(OBzl)-Ala-Arg-AMC). The conditions noted are these: factor XIa from Kordia, 15 min preincubation, 30 min at 22° C., fluorescence. It is filed as biochemical. The gist of the method: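 Released AMC fluorescence (360/460 nm) read after 30 min at 22 °C. The reaction was started with Boc-Glu(OBzl)-Ala-Arg-AMC (10 μM stock) after a 15 min preincubation of the enzyme (0.45 nM stock) with compound (final 50 μM to 0.00013 μM).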

Where a name gives a salt, the structure may show the parent alone.

As a reminder, the IC50 is the concentration that inhibits the measured activity by half. Low values mean higher potency, high ones lower potency. `Cc1cc(C(=O)NC2CCNCC2)ccc1-c1ccc(C[C@H](NC(=O)[C@H]2CC[C@H](CN)CC2)C(=O)Nc2ccc3[nH]c(C(F)(F)C(F)(F)C(F)(F)C(=O)O)nc3c2)cc1` [Example 65, 4-[5-({(2S)-2-({[trans-4-(Aminomethyl)cyclohexyl]carbonyl}amino)-3-[2′-methyl-4′-(piperidin-4-ylcarbamoyl)biphenyl-4-yl]propanoyl}amino)-1H-benzimidazol-2-yl]-2,2,3,3,4,4-hexafluorobutanoic acid hydrochloride]: the “aPTT” value in the assay with human and animal plasma was determined as 0.48 µmol/L. Half-maximal inhibition against human factor XIa (IC50) required 0.026 µM.
In the case of `Cc1cc(C(=O)NC2CCN(C)CC2)ccc1-c1ccc(C[C@H](NC(=O)[C@H]2CC[C@H](CN)CC2)C(=O)Nc2ccc3[nH]c(C(F)(F)F)nc3c2)cc1` [Example 76, 4′-[(2S)-2-({[trans-4-(Aminomethyl)cyclohexyl]carbonyl}amino)-3-oxo-3-{[2-(trifluoromethyl)-1H-benzimidazol-5-yl]amino}propyl]-2-methyl-N-(1-methylpiperidin-4-yl)biphenyl-4-carboxamide hydrochloride], the “aPTT” value in the assay with human and animal plasma was 0.37 µmol/L. This compound also returned an IC50 against human factor XIa of 0.025 µM.
On the same counts, the results for `Cc1cc(C(=O)NC2CCC(N(C)C)CC2)ccc1-c1ccc(C[C@H](NC(=O)[C@H]2CC[C@H](CN)CC2)C(=O)Nc2ccc3[nH]c(C(F)(F)F)nc3c2)cc1` (stereo partly drawn) [Example 77, 4′-[(2S)-2-({[trans-4-(Aminomethyl)cyclohexyl]carbonyl}amino)-3-oxo-3-{[2-(trifluoromethyl)-1H-benzimidazol-5-yl]amino}propyl]-N-[4-(dimethylamino)cyclohexyl]-2-methylbiphenyl-4-carboxamide hydrochloride] are 0.22 µmol/L and 0.0084 µM.
On the same counts, the results for `Cc1cc(C(=O)N[C@H]2CC[C@H](N(C)C)CC2)ccc1-c1ccc(C[C@H](NC(=O)[C@H]2CC[C@H](CN)CC2)C(=O)Nc2ccc3[nH]c(C(F)(F)C(F)(F)F)nc3c2)cc1` [Example 78, 4′-[(2S)-2-({[trans-4-(Aminomethyl)cyclohexyl]carbonyl}amino)-3-oxo-3-{[2-(pentafluoroethyl)-1H-benzimidazol-5-yl]amino}propyl]-N-[4-(dimethylamino)cyclohexyl]-2-methylbiphenyl-4-carboxamide hydrochloride] are 0.38 µmol/L and 0.012 µM.
Consider `Cc1cc(C(=O)N[C@H]2CC[C@H](N)CC2)ccc1-c1ccc(C[C@H](NC(=O)[C@H]2CC[C@H](CN)CC2)C(=O)Nc2ccc3[nH]c(C(F)(F)C(F)(F)F)nc3c2)cc1` [Example 79, N-(trans-4-Aminocyclohexyl)-4′-[(2S)-2-({[trans-4-(aminomethyl)cyclohexyl]carbonyl}amino)-3-oxo-3-{[2-(pentafluoroethyl)-1H-benzimidazol-5-yl]amino}propyl]-2-methylbiphenyl-4-carboxamide hydrochloride], for which the “aPTT” value in the assay on human and animal plasma is 0.21 µmol/L. Further, at human factor XIa, the IC50 worked out at 0.012 µM.
The like results for `Cc1cc(C(=O)N[C@@H]2CCNC2)ccc1-c1ccc(C[C@H](NC(=O)[C@H]2CC[C@H](CN)CC2)C(=O)Nc2ccc3[nH]c(C(F)(F)C(F)(F)F)nc3c2)cc1` [Example 80, 4′-[(2S)-2-({[trans-4-(Aminomethyl)cyclohexyl]carbonyl}amino)-3-oxo-3-{[2-(pentafluoroethyl)-1H-benzimidazol-5-yl]amino}propyl]-2-methyl-N-[(3R)-pyrrolidin-3-yl]biphenyl-4-carboxamide hydrochloride] were, in that order, 0.41 µmol/L and 0.017 µM.
`Cc1cc(C(=O)NCCCN(C)C)ccc1-c1ccc(C[C@H](NC(=O)[C@H]2CC[C@H](CN)CC2)C(=O)Nc2ccc3[nH]c(C(F)(F)C(F)(F)F)nc3c2)cc1` [Example 81, 4′-[(2S)-2-({[trans-4-(Aminomethyl)cyclohexyl]carbonyl}amino)-3-oxo-3-{[2-(pentafluoroethyl)-1H-benzimidazol-5-yl]amino}propyl]-N-[3-(dimethylamino)propyl]-2-methylbiphenyl-4-carboxamide hydrochloride]: the “aPTT” value with human and animal plasma amounted to 0.41 µmol/L. This compound had an IC50 on human factor XIa of 0.022 µM.
On the same counts, the results for `Cc1cc(C(=O)NC2CCN(C)CC2)ccc1-c1ccc(C[C@H](NC(=O)[C@H]2CC[C@H](CN)CC2)C(=O)Nc2ccc3[nH]c(C(F)(F)C(F)(F)F)nc3c2)cc1` [Example 82, 4′-[(2S)-2-({[trans-4-(Aminomethyl)cyclohexyl]carbonyl}amino)-3-oxo-3-{[2-(pentafluoroethyl)-1H-benzimidazol-5-yl]amino}propyl]-2-methyl-N-(1-methylpiperidin-4-yl)biphenyl-4-carboxamide hydrochloride] are 0.39 µmol/L and 0.021 µM.
On to `Cc1cc(C(=O)N[C@H]2CCNC2)ccc1-c1ccc(C[C@H](NC(=O)[C@H]2CC[C@H](CN)CC2)C(=O)Nc2ccc(-c3nnc(Cl)[nH]3)cc2)cc1` [Example 83, 4′-[(2S)-2-({[trans-4-(Aminomethyl)cyclohexyl]carbonyl}amino)-3-{[4-(3-chloro-4H-1,2,4-triazol-5-yl)phenyl]amino}-3-oxopropyl]-2-methyl-N-[(3S)-pyrrolidin-3-yl]biphenyl-4-carboxamide hydrochloride], for which the “aPTT” value with human and animal plasma worked out at 0.09 µmol/L. Also, the IC50 against human factor XIa came to 0.0025 µM.
The like results for `Cc1cc(C(=O)NC2CCNCC2)ccc1-c1ccc(C[C@H](NC(=O)[C@H]2CC[C@H](CN)CC2)C(=O)Nc2ccc(-c3c[nH]cn3)cc2)cc1` [Example 84, 4′-[(2S)-2-({[trans-4-(Aminomethyl)cyclohexyl]carbonyl}amino)-3-{[4-(1H-imidazol-4-yl)phenyl]amino}-3-oxopropyl]-2-methyl-N-(piperidin-4-yl)biphenyl-4-carboxamide hydrochloride] were, in that order, 0.3 µmol/L and 0.018 µM.
For `Cc1cc(C(=O)NC2CCNCC2)ccc1-c1ccc(C[C@H](NC(=O)[C@H]2CC[C@H](CN)CC2)C(=O)Nc2ccc3nc(C(F)(F)C(F)(F)C(F)(F)F)[nH]c3c2)cc1` [Example 85, 4′-[(2S)-2-({[trans-4-(Aminomethyl)cyclohexyl]carbonyl}amino)-3-{[2-(heptafluoropropyl)-1H-benzimidazol-6-yl]amino}-3-oxopropyl]-2-methyl-N-(piperidin-4-yl)biphenyl-4-carboxamide hydrochloride], the “aPTT” value in the assay on human and animal plasma was found to be 0.12 µmol/L. This compound also came in with an IC50 at human factor XIa of 0.016 µM.
The like results for `Cc1cc(C(=O)NC2CCNCC2)ccc1-c1ccc(C[C@H](NC(=O)[C@H]2CC[C@H](CN)CC2)C(=O)Nc2ccc3nc(C(F)F)[nH]c3c2)cc1` [Example 86, 4′-[(2S)-2-({[trans-4-(Aminomethyl)cyclohexyl]carbonyl}amino)-3-{[2-(difluoromethyl)-1H-benzimidazol-6-yl]amino}-3-oxopropyl]-2-methyl-N-(piperidin-4-yl)biphenyl-4-carboxamide hydrochloride] were, in that order, 0.14 µmol/L and 0.013 µM.
Turning to `Cc1cc(C(=O)NC2CCC(N(C)C)CC2)ccc1-c1ccc(C[C@H](NC(=O)[C@H]2CC[C@H](CN)CC2)C(=O)Nc2ccc(-c3nc(C(F)(F)C(F)(F)C(F)(F)F)n[nH]3)cc2)cc1` (stereo partly drawn) [Example 87, 4′-[(2S)-2-({[trans-4-(Aminomethyl)cyclohexyl]carbonyl}amino)-3-({4-[3-(heptafluoropropyl)-1H-1,2,4-triazol-5-yl]phenyl}amino)-3-oxopropyl]-N-[4-(dimethylamino)cyclohexyl]-2-methylbiphenyl-4-carboxamide hydrochloride], the “aPTT” value in the assay with human and animal plasma is 0.47 µmol/L. The compound also showed an IC50 on human factor XIa of 0.0028 µM.
On the same counts, the results for `Cc1cc(C(=O)NC2CCCNC2=O)ccc1-c1ccc(C[C@H](NC(=O)[C@H]2CC[C@H](CN)CC2)C(=O)Nc2ccc(-c3nc(C(F)(F)C(F)(F)C(F)(F)F)n[nH]3)cc2)cc1` (stereo partly drawn) [Example 88, 4′-[(2S)-2-({[trans-4-(Aminomethyl)cyclohexyl]carbonyl}amino)-3-({4-[3-(heptafluoropropyl)-1H-1,2,4-triazol-5-yl]phenyl}amino)-3-oxopropyl]-2-methyl-N-(2-oxopiperidin-3-yl)biphenyl-4-carboxamide hydrochloride] are 0.31 µmol/L and 0.0021 µM.
The like results for `Cc1cc(C(=O)NC2CCN(C(C)C)CC2)ccc1-c1ccc(C[C@H](NC(=O)[C@H]2CC[C@H](CN)CC2)C(=O)Nc2ccc(-c3nn[nH]n3)c(F)c2)cc1` [Example 89, 4′-[(2S)-2-({[trans-4-(Aminomethyl)cyclohexyl]carbonyl}amino)-3-{[3-fluoro-4-(2H-tetrazol-5-yl)phenyl]amino}-3-oxopropyl]-N-(1-isopropylpiperidin-4-yl)-2-methylbiphenyl-4-carboxamide hydrochloride] were, in that order, 0.03 µmol/L and 0.0043 µM.
The like results for `Cc1cc(C(=O)NC2CNCC(F)(F)C2)ccc1-c1ccc(C[C@H](NC(=O)[C@H]2CC[C@H](CN)CC2)C(=O)Nc2ccc(-c3nn[nH]n3)c(F)c2)cc1` (stereo partly drawn) [Example 90, 4′-[(2S)-2-({[trans-4-(Aminomethyl)cyclohexyl]carbonyl}amino)-3-{[3-fluoro-4-(2H-tetrazol-5-yl)phenyl]amino}-3-oxopropyl]-N-(5,5-difluoropiperidin-3-yl)-2-methylbiphenyl-4-carboxamide hydrochloride] were, in that order, 0.06 µmol/L and 0.0016 µM.
As to `Cl.NC[C@H]1CC[C@H](C(=O)N[C@@H](Cc2ccc(-c3ccc(C(=O)NCCN4CCCC4)cc3)cc2)C(=O)Nc2ccc(-c3nnn[nH]3)cc2)CC1` [Example 91, 4′-[(2S)-2-({[trans-4-(Aminomethyl)cyclohexyl]carbonyl}amino)-3-oxo-3-{[4-(1H-tetrazol-5-yl)phenyl]amino}propyl]-N-[2-(pyrrolidin-1-yl)ethyl]biphenyl-4-carboxamide hydrochloride], the “aPTT” value with human and animal plasma is 0.14 µmol/L. This compound gave an IC50 against human factor XIa of 0.0072 µM.
